Data reported in ChEMBL document CHEMBL1909046, “DrugMatrix in vitro pharmacology data”.

Assays:
[1] = target: Matrix metalloproteinase-9 (Homo sapiens, UniProt P14780); test: biochemical; type: cell-based;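 also: inhibition of isolated MMP-9 enzyme activity toward a synthetic peptide substrate, from the DrugMatrix protease screening panel; in other assays of this panel Not Active means under 50% inhibition at 10 µM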
[2] = DRUGMATRIX: Glutamate, AMPA radioligand binding (ligand: [3H] AMPA); type: cell membranes, Rattus norvegicus, Wistar, Cerebral cortex, Membrane; conditions: Not Active = under 50% inhibition at 10 µM
Thromboxane-A synthase = target: T1, Thromboxane-A synthase (Homo sapiens, UniProt P24557); test: biochemical; type: tissue-based, Platelet; conditions: platelet;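 also: enzyme inhibition assay with PGH2 supplied as substrate; in other assays of this panel Not Active means under 50% inhibition at 10 µM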
T1 sequence (P24557 whole entry): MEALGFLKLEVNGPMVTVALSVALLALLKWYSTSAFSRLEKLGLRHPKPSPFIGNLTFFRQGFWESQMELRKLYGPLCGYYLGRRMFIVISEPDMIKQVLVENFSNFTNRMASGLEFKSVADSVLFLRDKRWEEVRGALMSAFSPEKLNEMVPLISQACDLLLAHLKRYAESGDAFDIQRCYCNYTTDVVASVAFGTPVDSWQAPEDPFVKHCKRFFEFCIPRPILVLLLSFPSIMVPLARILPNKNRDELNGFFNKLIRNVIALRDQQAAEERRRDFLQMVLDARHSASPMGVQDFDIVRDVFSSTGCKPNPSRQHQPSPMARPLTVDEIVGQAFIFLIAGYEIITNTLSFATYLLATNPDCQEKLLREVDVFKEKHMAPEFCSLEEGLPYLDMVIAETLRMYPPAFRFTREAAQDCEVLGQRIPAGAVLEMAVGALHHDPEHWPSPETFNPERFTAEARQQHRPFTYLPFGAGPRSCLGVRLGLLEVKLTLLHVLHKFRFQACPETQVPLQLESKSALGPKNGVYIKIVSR

[3] = target: T2, Angiotensin-converting enzyme (Oryctolagus cuniculus, UniProt P12822); type: tissue-based, Lung;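 also: enzymatic inhibition of angiotensin-converting enzyme measured with FAPGG as the substrate; in other assays of this panel Not Active means under 50% inhibition at 10 µM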
T2 sequence (P12822 whole entry): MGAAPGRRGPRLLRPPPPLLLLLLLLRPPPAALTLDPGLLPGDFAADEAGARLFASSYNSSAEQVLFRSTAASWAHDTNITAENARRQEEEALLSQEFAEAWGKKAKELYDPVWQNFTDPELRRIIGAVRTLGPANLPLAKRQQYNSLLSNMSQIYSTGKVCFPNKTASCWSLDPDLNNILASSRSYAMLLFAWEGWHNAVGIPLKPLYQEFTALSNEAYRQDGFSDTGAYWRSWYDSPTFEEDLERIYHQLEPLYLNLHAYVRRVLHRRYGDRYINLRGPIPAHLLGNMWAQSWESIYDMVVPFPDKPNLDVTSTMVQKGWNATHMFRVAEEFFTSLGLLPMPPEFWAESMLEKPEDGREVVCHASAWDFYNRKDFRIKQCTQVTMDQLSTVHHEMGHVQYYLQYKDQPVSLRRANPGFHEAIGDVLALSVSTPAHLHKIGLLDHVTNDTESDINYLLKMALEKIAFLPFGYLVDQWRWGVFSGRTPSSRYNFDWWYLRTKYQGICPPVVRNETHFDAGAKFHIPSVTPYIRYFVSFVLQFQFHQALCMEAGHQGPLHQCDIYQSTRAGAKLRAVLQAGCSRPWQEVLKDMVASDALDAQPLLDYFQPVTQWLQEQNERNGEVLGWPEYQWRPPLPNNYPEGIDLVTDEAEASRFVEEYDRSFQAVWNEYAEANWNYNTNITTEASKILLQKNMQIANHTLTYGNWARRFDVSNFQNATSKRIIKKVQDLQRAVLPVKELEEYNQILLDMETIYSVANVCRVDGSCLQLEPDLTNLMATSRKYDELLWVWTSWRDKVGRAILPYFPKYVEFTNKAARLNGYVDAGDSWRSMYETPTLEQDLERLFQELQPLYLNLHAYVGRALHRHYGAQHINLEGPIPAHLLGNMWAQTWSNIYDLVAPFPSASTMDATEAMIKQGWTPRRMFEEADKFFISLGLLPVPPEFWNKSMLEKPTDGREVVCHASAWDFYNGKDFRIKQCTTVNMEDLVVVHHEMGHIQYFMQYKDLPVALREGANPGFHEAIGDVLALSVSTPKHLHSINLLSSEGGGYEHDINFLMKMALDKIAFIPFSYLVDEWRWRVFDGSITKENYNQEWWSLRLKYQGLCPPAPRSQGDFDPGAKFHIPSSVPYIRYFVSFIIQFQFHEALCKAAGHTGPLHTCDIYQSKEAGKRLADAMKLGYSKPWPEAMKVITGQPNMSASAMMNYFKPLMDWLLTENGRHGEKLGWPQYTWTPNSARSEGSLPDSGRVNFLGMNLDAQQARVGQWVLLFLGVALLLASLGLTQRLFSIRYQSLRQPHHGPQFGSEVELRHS

Cytochrome P450 2D6 = Cytochrome P450 2D6 (Homo sapiens, UniProt P10635); conditions: bti-tn-5b1-4; also: in other assays of this panel Not Active means under 50% inhibition at 10 µM
Cytochrome P450 2D6, sequence (P10635 whole entry): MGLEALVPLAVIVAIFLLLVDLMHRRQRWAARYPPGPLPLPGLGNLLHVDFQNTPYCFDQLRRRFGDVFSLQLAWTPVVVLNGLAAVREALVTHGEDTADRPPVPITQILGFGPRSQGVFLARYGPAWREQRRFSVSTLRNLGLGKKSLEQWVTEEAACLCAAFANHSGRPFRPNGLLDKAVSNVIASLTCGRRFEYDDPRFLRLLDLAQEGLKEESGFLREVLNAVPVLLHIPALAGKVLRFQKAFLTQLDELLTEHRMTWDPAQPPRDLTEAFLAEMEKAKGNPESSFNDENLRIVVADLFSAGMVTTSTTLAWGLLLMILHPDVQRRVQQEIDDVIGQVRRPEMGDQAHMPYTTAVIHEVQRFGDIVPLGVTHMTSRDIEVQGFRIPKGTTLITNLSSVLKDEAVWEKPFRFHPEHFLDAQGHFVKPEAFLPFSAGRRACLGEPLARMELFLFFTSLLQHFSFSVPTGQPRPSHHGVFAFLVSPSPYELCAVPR

Cytochrome P450 2C19 = Cytochrome P450 2C19 (Homo sapiens, UniProt P33261); conditions: bti-tn-5b1-4; also: in other assays of this panel Not Active means under 50% inhibition at 10 µM
Cytochrome P450 2C19, sequence (P33261 whole entry): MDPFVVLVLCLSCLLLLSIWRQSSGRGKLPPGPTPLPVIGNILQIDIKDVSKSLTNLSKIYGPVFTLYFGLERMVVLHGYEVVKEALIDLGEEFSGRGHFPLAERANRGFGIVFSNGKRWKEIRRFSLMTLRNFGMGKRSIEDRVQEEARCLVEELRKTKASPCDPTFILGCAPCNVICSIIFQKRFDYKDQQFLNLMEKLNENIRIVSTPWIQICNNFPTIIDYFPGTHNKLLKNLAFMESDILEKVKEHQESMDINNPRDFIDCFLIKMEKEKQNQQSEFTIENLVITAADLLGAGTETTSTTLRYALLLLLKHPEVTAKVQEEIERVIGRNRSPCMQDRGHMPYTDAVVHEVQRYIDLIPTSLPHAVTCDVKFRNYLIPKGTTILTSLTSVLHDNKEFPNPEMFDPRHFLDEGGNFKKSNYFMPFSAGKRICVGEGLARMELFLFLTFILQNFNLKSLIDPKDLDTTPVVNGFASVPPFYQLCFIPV

[4] = target: T3, Neuropeptide Y receptor type 1 (Homo sapiens, UniProt P25929); type: cell membranes, Membrane; conditions: sk-n-mc; also: in other assays of this panel Not Active means under 50% inhibition at 10 µM
T3 sequence (P25929 whole entry): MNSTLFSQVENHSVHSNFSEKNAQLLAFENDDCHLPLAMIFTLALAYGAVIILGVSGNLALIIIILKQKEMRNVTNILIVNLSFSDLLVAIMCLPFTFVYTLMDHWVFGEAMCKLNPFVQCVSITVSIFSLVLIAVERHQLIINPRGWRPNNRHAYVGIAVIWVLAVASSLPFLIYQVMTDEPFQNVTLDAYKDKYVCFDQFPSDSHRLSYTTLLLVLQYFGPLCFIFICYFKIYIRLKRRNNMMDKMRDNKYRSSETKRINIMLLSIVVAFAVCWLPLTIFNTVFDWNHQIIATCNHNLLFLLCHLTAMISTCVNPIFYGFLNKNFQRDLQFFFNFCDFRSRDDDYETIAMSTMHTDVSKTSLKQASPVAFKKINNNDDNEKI

Matrix metalloproteinase-9, sequence (P14780 whole entry): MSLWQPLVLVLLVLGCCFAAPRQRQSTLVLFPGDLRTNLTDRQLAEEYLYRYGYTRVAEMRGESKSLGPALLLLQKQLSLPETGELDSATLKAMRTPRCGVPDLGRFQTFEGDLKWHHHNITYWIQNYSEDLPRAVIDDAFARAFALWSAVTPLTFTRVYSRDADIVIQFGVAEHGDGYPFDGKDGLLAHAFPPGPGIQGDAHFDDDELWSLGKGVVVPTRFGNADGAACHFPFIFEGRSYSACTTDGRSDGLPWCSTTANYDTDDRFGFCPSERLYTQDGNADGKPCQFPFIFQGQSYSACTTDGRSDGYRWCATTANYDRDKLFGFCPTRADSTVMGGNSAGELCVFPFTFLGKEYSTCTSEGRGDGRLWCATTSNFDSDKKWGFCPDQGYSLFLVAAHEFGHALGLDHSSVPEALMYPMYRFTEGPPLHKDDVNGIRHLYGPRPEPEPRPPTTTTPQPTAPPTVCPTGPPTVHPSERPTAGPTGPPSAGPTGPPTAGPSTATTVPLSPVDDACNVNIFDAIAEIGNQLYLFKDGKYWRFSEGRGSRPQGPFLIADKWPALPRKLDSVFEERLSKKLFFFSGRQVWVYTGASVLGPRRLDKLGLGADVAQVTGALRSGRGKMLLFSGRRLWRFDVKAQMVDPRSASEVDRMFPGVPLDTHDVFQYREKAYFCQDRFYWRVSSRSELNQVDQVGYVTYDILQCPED

C[C@]12CCC(=O)C=C1CC[C@@H]1[C@@H]2CC[C@@]2(C)[C@H]1CC[C@]2(C)O [METHYLTESTOSTERONE]
Not Active: IC50 [1] | IC50 [2] | Ki [2] | IC50 (Thromboxane-A synthase) | IC50 [3] | IC50 (Cytochrome P450 2D6) | Ki (Cytochrome P450 2D6) | IC50 (Cytochrome P450 2C19) | Ki (Cytochrome P450 2C19) | IC50 [4]

Cc1ccccc1N1C(=O)c2cc(S(N)(=O)=O)c(Cl)cc2NC1C (configuration not stated) [METOLAZONE]
Not Active: IC50 [1] | IC50 [2] | Ki [2] | IC50 (Thromboxane-A synthase) | IC50 [3] | IC50 (Cytochrome P450 2D6) | Ki (Cytochrome P450 2D6) | IC50 (Cytochrome P450 2C19) | Ki (Cytochrome P450 2C19) | IC50 [4]

NC1=NC(=O)C(c2ccccc2)O1 (configuration not stated) [PEMOLINE]
Not Active: IC50 [1] | IC50 [2] | Ki [2] | IC50 (Thromboxane-A synthase) | IC50 [3] | IC50 (Cytochrome P450 2D6) | Ki (Cytochrome P450 2D6) | IC50 (Cytochrome P450 2C19) | Ki (Cytochrome P450 2C19) | IC50 [4]

Nc1nc2c(ncn2CCC(CO)CO)c(=O)[nH]1 [PENCICLOVIR]
Not Active: IC50 [1] | IC50 [2] | Ki [2] | IC50 (Thromboxane-A synthase) | IC50 [3] | IC50 (Cytochrome P450 2D6) | Ki (Cytochrome P450 2D6) | IC50 (Cytochrome P450 2C19) | Ki (Cytochrome P450 2C19) | IC50 [4]

C=C(C)C1(O)OC(=O)C=C1OC (configuration not stated) [PENICILLIC ACID]
Not Active: IC50 [1] | IC50 [2] | Ki [2] | IC50 (Thromboxane-A synthase) | IC50 [3] | IC50 (Cytochrome P450 2D6) | Ki (Cytochrome P450 2D6) | IC50 (Cytochrome P450 2C19) | Ki (Cytochrome P450 2C19) | IC50 [4]

CNNCc1ccc(C(=O)NC(C)C)cc1 [PROCARBAZINE]
Not Active: IC50 [1] | IC50 [2] | Ki [2] | IC50 (Thromboxane-A synthase) | IC50 [3] | IC50 (Cytochrome P450 2D6) | Ki (Cytochrome P450 2D6) | IC50 (Cytochrome P450 2C19) | Ki (Cytochrome P450 2C19) | IC50 [4]

CC(O)CO (configuration not stated) [PROPYLENE GLYCOL]
Not Active: IC50 [1] | IC50 [2] | Ki [2] | IC50 (Thromboxane-A synthase) | IC50 [3] | IC50 (Cytochrome P450 2D6) | Ki (Cytochrome P450 2D6) | IC50 (Cytochrome P450 2C19) | Ki (Cytochrome P450 2C19) | IC50 [4]

CADMIUM ACETATE
Not Active: IC50 [1] | Ki [1] | IC50 [2] | Ki [2] | IC50 (Thromboxane-A synthase) | Ki (Thromboxane-A synthase) | IC50 [3] | Ki [3] | IC50 (Cytochrome P450 2D6) | Ki (Cytochrome P450 2D6) | IC50 (Cytochrome P450 2C19) | Ki (Cytochrome P450 2C19) | IC50 [4] | Ki [4]

LEAD (II) ACETATE
Not Active: IC50 [1] | Ki [1] | IC50 [2] | Ki [2] | IC50 (Thromboxane-A synthase) | Ki (Thromboxane-A synthase) | IC50 [3] | Ki [3] | IC50 (Cytochrome P450 2D6) | Ki (Cytochrome P450 2D6) | IC50 (Cytochrome P450 2C19) | Ki (Cytochrome P450 2C19) | IC50 [4] | Ki [4]

LIPOPOLYSACCHARIDE E. COLI O55:B5
Not Active: IC50 [1] | Ki [1] | IC50 [2] | Ki [2] | IC50 (Thromboxane-A synthase) | Ki (Thromboxane-A synthase) | IC50 [3] | Ki [3] | IC50 (Cytochrome P450 2D6) | Ki (Cytochrome P450 2D6) | IC50 (Cytochrome P450 2C19) | Ki (Cytochrome P450 2C19) | IC50 [4] | Ki [4]
